Legend:
Format in all cases: in vivo
[1] = test system: ragweed (common ragweed, Ambrosia elatior); test: Test A preemergence; details: Ambrosia artemisiifolia, pre-emergence, 240 h; for pest or weed control at 125 g/ha: 125 g ai/ha, preemergence, 0 to 100 scale where 0 is no effect and 100 is complete control, read-out: Ragweed plant response rating; for pest or weed control at 500 g/ha: 500 g ai/ha, Preemergence, visual injury vs untreated controls after approximately 10 d, read-out: Ragweed plant response rating (0 to 100 scale where 0 is no effect and 100 is complete control)
Outline: (§1)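 Seeded soil received test chemicals as a preemergence directed spray, and seedlings at one to two leaves, 2–10 cm tall, received them postemergence, in a non-phytotoxic, surfactant-containing solvent mixture. Pots were held in a greenhouse for approximately 10 d, then rated for injury from 0, no effect, to 100, complete control.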

[2] = test system: barnyardgrass (Echinochloa crus-galli); test: Test A preemergence; details: Echinochloa crus-galli, pre-emergence, 240 h; for pest or weed control at 125 g/ha: 125 g ai/ha, preemergence, 0 to 100 scale where 0 is no effect and 100 is complete control, read-out: Barnyardgrass plant response rating; for pest or weed control at 500 g/ha: 500 g ai/ha, Preemergence, visual injury vs untreated controls after approximately 10 d, read-out: Barnyardgrass plant response rating (0 to 100 scale where 0 is no effect and 100 is complete control)
Outline: as §1

[3] = test system: pigweed (Amaranthus retroflexus); test: Test A preemergence; details: Amaranthus retroflexus, pre-emergence, 240 h; for pest or weed control at 125 g/ha: 125 g ai/ha, preemergence, 0 to 100 scale where 0 is no effect and 100 is complete control, read-out: Pigweed plant response rating; for pest or weed control at 500 g/ha: 500 g ai/ha, Preemergence, visual injury vs untreated controls after approximately 10 d, read-out: Pigweed plant response rating (0 to 100 scale where 0 is no effect and 100 is complete control)
[4] = test system: Kochia (Kochia scoparia); test: Test A preemergence; details: Bassia scoparia, pre-emergence, 240 h; for pest or weed control at 125 g/ha: 125 g ai/ha, preemergence, 0 to 100 scale where 0 is no effect and 100 is complete control, read-out: Kochia plant response rating; for pest or weed control at 500 g/ha: 500 g ai/ha, Preemergence, visual injury vs untreated controls after approximately 10 d, read-out: Kochia plant response rating (0 to 100 scale where 0 is no effect and 100 is complete control)
Outline: as §1

[5] = test system: ryegrass, Italian (Italian ryegrass, Lolium multiflorum); test: Test A preemergence; details: Lolium multiflorum, pre-emergence, 240 h; for pest or weed control at 125 g/ha: 125 g ai/ha, preemergence, 0 to 100 scale where 0 is no effect and 100 is complete control, read-out: Ryegrass, Italian plant response rating; for pest or weed control at 500 g/ha: 500 g ai/ha, Preemergence, visual injury vs untreated controls after approximately 10 d, read-out: Ryegrass, Italian plant response rating (0 to 100 scale where 0 is no effect and 100 is complete control)
Outline: as §1

[6] = test system: giant foxtail (Setaria faberii); test: Test A preemergence; details: Setaria faberi, pre-emergence, 240 h; for pest or weed control at 125 g/ha: 125 g ai/ha, preemergence, 0 to 100 scale where 0 is no effect and 100 is complete control, read-out: Foxtail, Giant plant response rating; for pest or weed control at 500 g/ha: 500 g ai/ha, Preemergence, visual injury vs untreated controls after approximately 10 d, read-out: Foxtail, Giant plant response rating (0 to 100 scale where 0 is no effect and 100 is complete control)
Outline: as §1

[7] = test system: barnyardgrass (Echinochloa crus-galli); test: Test A postemergence; details: Echinochloa crus-galli, post-emergence, 240 h, 125 g ai/ha, postemergence, visual injury rating after approximately 10 d; read-out: Barnyardgrass plant response rating (0 to 100 scale, 0 no effect, 100 complete control)
Outline: as §1

[8] = test system: Kochia (Kochia scoparia); test: Test A postemergence; details: Bassia scoparia, post-emergence, 240 h, 125 g ai/ha, postemergence, visual injury rating after approximately 10 d; read-out: Kochia plant response rating (0 to 100 scale, 0 no effect, 100 complete control)
Outline: as §1

[9] = test system: wheat (Triticum aestivum); test: Test A postemergence; details: Triticum aestivum, post-emergence, 240 h, 125 g ai/ha, postemergence, visual injury rating after approximately 10 d; read-out: Wheat plant response rating (0 to 100 scale, 0 no effect, 100 complete control)
Outline: as §1

[10] = test system: giant foxtail (Setaria faberii); test: Test A postemergence; details: Setaria faberi, post-emergence, 240 h, 125 g ai/ha, postemergence, visual injury rating after approximately 10 d; read-out: Foxtail, Giant plant response rating (0 to 100 scale, 0 no effect, 100 complete control)
Outline: as §1

[11] = test system: barnyardgrass (Echinochloa crus-galli); test: Test B flooded paddy test; details: Echinochloa crus-galli, Flood, 250 g ai/ha; scale of 0 to 100 where 0 is no effect and 100 is complete control; read-out: Barnyardgrass plant response rating
Outline: (§2)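 Greenhouse paddy pots with 2-leaf stage plants received compound by direct addition to floodwater 3 cm deep, kept at that level. Scored visually at 13–15 d versus controls (0 no effect; 100 complete control).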

[12] = test system: ducksalad (Heteranthera limosa); test: Test B flooded paddy test; details: Heteranthera limosa, Flood, 250 g ai/ha; scale of 0 to 100 where 0 is no effect and 100 is complete control; read-out: Ducksalad plant response rating
Outline: as §2

[13] = test system: rice (Oryra sativa); test: Test B flooded paddy test; details: Oryza sativa, Flood, 250 g ai/ha; scale of 0 to 100 where 0 is no effect and 100 is complete control; read-out: Rice plant response rating
Outline: as §2

[14] = test system: sedge, umbrella (small-flower umbrella sedge, Cyperus difformis); test: Test B flooded paddy test; details: Cyperus difformis, Flood, 250 g ai/ha; scale of 0 to 100 where 0 is no effect and 100 is complete control; read-out: Sedge, Umbrella plant response rating
Outline: as §2

SMILES: CN1C[C@H](c2cc(F)cc(F)c2)[C@@H](C(=O)Nc2ccccc2[S@+](C)[O-])C1=O [Compound 871]
- pest or weed control at 125 g/ha [1]: 0%
- pest or weed control at 500 g/ha [1]: 20%
- pest or weed control at 125 g/ha [2]: 20%
- pest or weed control at 500 g/ha [2]: 90%
- pest or weed control at 125 g/ha [3]: 0%
- pest or weed control at 500 g/ha [3]: 30%
- pest or weed control at 125 g/ha [4]: 80%
- pest or weed control at 500 g/ha [4]: 80%
- pest or weed control at 125 g/ha [5]: 0%
- pest or weed control at 500 g/ha [5]: 30%
- pest or weed control at 125 g/ha [6]: 80%
- pest or weed control at 500 g/ha [6]: 80%
- pest or weed control at 125 g/ha [7]: 50%
- pest or weed control at 125 g/ha [8]: 0%
- plant injury at 125 g/ha [9]: 20%
- pest or weed control at 125 g/ha [10]: 40%
- pest or weed control at 250 g/ha [11]: 0%
- pest or weed control at 250 g/ha [12]: 0%
- pest or weed control at 250 g/ha [13]: 0%
- pest or weed control at 250 g/ha [14]: 0%

SMILES: Cc1c(F)cccc1NC(=O)[C@H]1C(=O)N(C)C[C@@H]1c1cccc(COC(F)F)c1 [Compound 874]
- pest or weed control at 125 g/ha [1]: 20%
- pest or weed control at 500 g/ha [1]: 60%
- pest or weed control at 125 g/ha [2]: 90%
- pest or weed control at 500 g/ha [2]: 100%
- pest or weed control at 125 g/ha [3]: 20%
- pest or weed control at 500 g/ha [3]: 30%
- pest or weed control at 125 g/ha [4]: 60%
- pest or weed control at 500 g/ha [4]: 90%
- pest or weed control at 125 g/ha [5]: 40%
- pest or weed control at 500 g/ha [5]: 50%
- pest or weed control at 125 g/ha [6]: 90%
- pest or weed control at 500 g/ha [6]: 100%
- pest or weed control at 125 g/ha [7]: 90%
- pest or weed control at 125 g/ha [8]: 20%
- plant injury at 125 g/ha [9]: 20%
- pest or weed control at 125 g/ha [10]: 90%
- pest or weed control at 250 g/ha [11]: 65%
- pest or weed control at 250 g/ha [12]: 100%
- pest or weed control at 250 g/ha [13]: 0%
- pest or weed control at 250 g/ha [14]: 0%

SMILES: CN1C[C@H](c2cccc(COC(F)F)c2)[C@@H](C(=O)Nc2ccccc2F)C1=O [Compound 875]
- pest or weed control at 125 g/ha [1]: 0%
- pest or weed control at 500 g/ha [1]: 50%
- pest or weed control at 125 g/ha [2]: 90%
- pest or weed control at 500 g/ha [2]: 90%
- pest or weed control at 125 g/ha [3]: 0%
- pest or weed control at 500 g/ha [3]: 0%
- pest or weed control at 125 g/ha [4]: 50%
- pest or weed control at 500 g/ha [4]: 80%
- pest or weed control at 125 g/ha [5]: 0%
- pest or weed control at 500 g/ha [5]: 30%
- pest or weed control at 125 g/ha [6]: 90%
- pest or weed control at 500 g/ha [6]: 90%
- pest or weed control at 125 g/ha [7]: 90%
- pest or weed control at 125 g/ha [8]: 40%
- plant injury at 125 g/ha [9]: 0%
- pest or weed control at 125 g/ha [10]: 90%
- pest or weed control at 250 g/ha [11]: 70%
- pest or weed control at 250 g/ha [12]: 100%
- pest or weed control at 250 g/ha [13]: 0%
- pest or weed control at 250 g/ha [14]: 0%

SMILES: CSc1ccccc1NC(=O)[C@H]1C(=O)N(C)C[C@@H]1c1cccc(COC(F)F)c1 [Compound 876]
- pest or weed control at 125 g/ha [1]: 0%
- pest or weed control at 500 g/ha [1]: 80%
- pest or weed control at 125 g/ha [2]: 60%
- pest or weed control at 500 g/ha [2]: 90%
- pest or weed control at 125 g/ha [3]: 0%
- pest or weed control at 500 g/ha [3]: 30%
- pest or weed control at 125 g/ha [4]: 0%
- pest or weed control at 500 g/ha [4]: 70%
- pest or weed control at 125 g/ha [5]: 0%
- pest or weed control at 500 g/ha [5]: 30%
- pest or weed control at 125 g/ha [6]: 80%
- pest or weed control at 500 g/ha [6]: 100%
- pest or weed control at 125 g/ha [7]: 60%
- pest or weed control at 125 g/ha [8]: 50%
- plant injury at 125 g/ha [9]: 0%
- pest or weed control at 125 g/ha [10]: 40%
- pest or weed control at 250 g/ha [11]: 0%
- pest or weed control at 250 g/ha [12]: 85%
- pest or weed control at 250 g/ha [13]: 0%
- pest or weed control at 250 g/ha [14]: 0%
